We go through seven compounds from patent US20230054407A1, “OPTICAL BIOPSY STAIN PANELS AND METHODS OF USE” (ARIZONA BOARD OF REGENTS ON BEHALF OF THE UNIVERSITY OF …, priority 2020, published 2023).

In one data set the test system is bovine lung tissue. The experiment in a line: Topical drug-dye staining of ex vivo bovine lung tissue imaged with confocal microscopy. As to conditions: for localization of drug-dye: ex vivo bovine lung tissue, qualitatively at the concentrations of FIGS. 2A-2D; for staining pattern: single dye applied topically to ex vivo bovine lung tissue, confocal microscopy. From the text:
Image field is 635.5 μm tall×wide. Inset is the structure of Proflavine.
Image field is 635.5 μm tall×wide. […]
Imaging was with confocal microscopy, with a bovine lung sample thickness of 10 μm, and an image field of 635.5 μm^2.
Imaging was with confocal microscopy settings at 488 nm excitation after topical application to the bovine lung specimen. Image field is 635.5 μm^2 at 10 μm thickness.
The dyes were pipetted in situ upon bovine tissue ex vivo and examined under confocal microscopy with a 488 nm laser with 10 μm optical thickness and imaged fields being 635.5 μm^2.
Referring to FIG. 1, 50 μl at 20 μM of Proflavine was topically applied directly to ex vivo bovine lung tissue in situ and imaged immediately with confocal microscopy. […] Likewise, Fluorescein, Phenol Red, Phloxine B, and Rose Bengal were each added to ex vivo bovine lung tissue and imaged under confocal microscopy (see FIGS. 2A-2I). […] This combination was then added topically to bovine lung tissue and imaged using confocal microscopy (FIG. 3). […]

Data set [1] has as its system human breast cancer metastasized to the lung. The experiment in a line: Staining of human breast cancer metastasized to the lung with Rose Bengal and Proflavine. As to conditions: Rose Bengal and Proflavine combined, concentrations similar to FIG. 6A.
Data set [2] can be described thus: In vitro fluorescence emission spectra and compatibility of nucleic acid and protein/cytoplasm dyes. The class given is physicochemical. As to conditions: for source of the resultant fluorescence emission signal of the mixture: Mitoxantrone mixed with Phloxine B at 100:1 molar ratio. How it is done: Additional incompatibility results from overlapping of the component peak emissions.
Daunorubicin (1 μM), Fluorescein (1 nM) and the combination of the two were excited at 375 nm, with resultant fluorescence emission.
With 405 nm excitation, Proflavine at 0.25 μM, Rose Bengal at 10 μM, and the combination result in roughly the same order of magnitude peaks resulting from their respective fluorescence.
FIGS. 8A-8F show emission spectra of various drug dye candidates. FIGS. 8A-8D show Mitoxantrone as a Hematoxylin-alternative candidate at 10 μM, with Phloxine B at 0.1 μM as an Eosin-alternative candidate drug-dye, and a combination of the two excited at different wavelengths: (FIG. 8A) 375 nm, (FIG. 8B) 405 nm, (FIG. 80) 455 nm, and (FIG. 8D) 488 nm. […] Additionally, there was overlap of emission spectra (FIG. 9) and the combination of certain DNA and protein dyes decreased the emission intensity relative to the same concentration of the component dye alone (FIG. 9 and FIG. 10).
The stain panels listed below use a combination of nucleus dyes and protein/cytoplasm dyes that have been optimized for their compatibility.

On to `O=C([O-])c1c(Cl)c(Cl)c(Cl)c(Cl)c1-c1c2cc(I)c(=O)c(I)c-2oc2c(I)c([O-])c(I)cc12.[Na+].[Na+]` [Rose Bengal], for which, in the data set on bovine lung tissue, the localization of drug-dye result is “appeared to localize to cell cytoplasm in addition to the connective tissue fibers”; the staining pattern entry is “variable staining of the proteinaceous connective tissue and cellular cytoplasm, granules or vesicles”. The “structure outlined by the stain” value in data set [1] is reported as “proteins”. Besides, the Approximate peak fluorescence in data set [2] is around 565 nm.
As to `COc1cccc2c1C(=O)c1c(O)c3c(c(O)c1C2=O)C[C@@](O)(C(C)=O)C[C@@H]3O[C@H]1C[C@H](N)[C@H](O)[C@H](C)O1` [Daunorubicin], the “change of fluorescence emission peak with increasing concentrations of Phloxine B” value in data set [2] (488 nm excitation, peak around 590 nm) is given as “progressive decrease of fluorescence emission”.
On to `O=C([O-])c1c(Cl)c(Cl)c(Cl)c(Cl)c1-c1c2cc(Br)c(=O)c(Br)c-2oc2c(Br)c([O-])c(Br)cc12.[Na+].[Na+]` [Phloxine B], for which, in the data set with bovine lung tissue, the localization of drug-dye entry is “appeared to localize to cell cytoplasm in addition to the connective tissue fibers”; the staining pattern result was “variable staining of the proteinaceous connective tissue and cellular cytoplasm, granules or vesicles”. In data set [2], the Approximate peak fluorescence is on record as around 550 nm. In addition, the “source of the resultant fluorescence emission signal of the mixture” value in data set [2] (488 nm excitation) was “nearly all the fluorescence emission signal from Phloxine B”.
`O=C1c2c(O)ccc(O)c2C(=O)c2c(NCCNCCO)ccc(NCCNCCO)c21` [Mitoxantrone]: the Approximate peak fluorescence in data set [2] was around 685 nm. Moreover, the “concentration dependence of fluorescence” value in data set [2] (455 nm excitation) was “concentration-dependent fluorescence”. For the same compound, the “source of the resultant fluorescence emission signal of the mixture” value in data set [2] (375 nm excitation) is on record as “primarily Mitoxantrone”.
For the compound `Nc1c(/N=N/c2ccc(-c3ccc(/N=N/c4cc(S(=O)(=O)O)c5ccccc5c4N)cc3)cc2)cc(S(=O)(=O)O)c2ccccc12` [Congo Red], the Approximate peak fluorescence in data set [2] is given as around 425 nm.
Take `Nc1ccc2cc3ccc(N)cc3nc2c1` [Proflavine]: the staining pattern result in the data set on bovine lung tissue is given as “staining like those typical of a fluorescent DNA dye”. Besides, the “structure outlined by the stain” value in data set [1] is on record as “nucleus”. In data set [2], the Approximate peak fluorescence was around 508 nm.
As for `CN(C)c1ccc2nc3ccc(=[N+](C)C)cc-3sc2c1` [Methylene Blue], the Approximate peak fluorescence in data set [2] is around 695 nm.
